Reference: patent US11066369B2, “N-(pyridin-2-yl)pyridine-sulfonamide derivatives and their use in the treatment of disease” (Novartis AG, priority 2016, dated 2021)
Structures can show the parent of a compound that is named as a salt. Where two headings read alike, the source gives them in different places.

Target: T1, horseradish peroxidase (HRP) tagged delF508-CFTR (Homo sapiens, UniProt P13569, DEL508-508)
T1 construct: expressed in transfected cells
Assay: Measurement of delF508-CFTR-HRP surface expression in CFBE41o- cells;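 for DelF508-CFTR-HRP Amax %: percent efficacy relative to reference corrector lumacaftor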
Format: cell-based
Conditions: CFBE41o- cells; for EC50: read-out: DelF508-CFTR-HRP EC50; for Emax: read-out: DelF508-CFTR-HRP Amax %
Description: Measurement of delF508-CFTR-HRP Surface Expression in CFBE41o-Cells
This assay quantifies the cell surface expressions of the mutant CFTR channel using an extracellular HRP tag.
A cellular assay was developed to measure surface expression of horseradish peroxidase (HRP) tagged delF508-CFTR in the human bronchial epithelial immortalized CFBE41o-cell line (Phuan, P. W., et al, (2014) Molecular Pharmacology 86:42-51). Specifically, the HRP sequence was inserted into the fourth extracellular loop of delF508-CFTR and stably expressed in CFBE41o-cells. Cells were seeded in 384 well plate at a density of 5000 cells/well and incubated at 37° C. for 12 to 24 hours in medium (Gibco MEM #11095, 10% FBS, 10 mM HEPES, […], 200 μg/mL G418, 3 μg/mL Puromycin). The delF508-CFTR-HRP expression was induced with 500 ng/mL doxycycline (Sigma D-9891, dissolved in H2O and sterile filtered) in medium and the cells were incubated at 37° C. for 48h. Old medium was removed and fresh medium was added containing 500 ng/mL doxycycline and unknown test compound at required test concentration in DMSO, not exceeding 0.5% final DMSO concentration. The highest concentration tested was 10 μM with a 10-point concentration response curve using a 3-fold dilution. After addition of compounds, the cells were incubated for 24h at 37° C. On the final day, cells were washed four times in PBS containing 1 mM MgCl2 and 0.1 mM CaCl2. HRP-Substrate (SuperSignal ELISA Pico, Fisher #37069) 20 μl/well was added and the luminescence signal was determined (Viewlux, Perkin Elmer). Light was emitted upon addition of exogenous HRP-Substrate only when delF508-CFTR-HRP reached the cell surface and the HRP tag was accessible to the HRP-Substrate (note: HRP-Substrate cannot cross the lipid bilayer to reach delF508-CFTR-HRP misfolded within the cell).
The median activity for the lowest concentration of the compounds on each assay plate was calculated and this value was used to normalize the signal for each well on the respective plate. Three replicates at each concentrations for every compound were run to determine one EC50. The median value was determined and used to calculate compound activities as described below. Effective half maximal values (EC50) were calculated for each compound by performing logistic regression on measured dose-response data points using the equation:
[formula] where “Y” is the observed activity, “Bottom” is the lowest observed value, “Top” is the highest observed value, and the “Hill coefficient” gives the largest absolute value of the slope. The curve fitting is carried out by a curve fitting program implemented at GNF using Matlab (Mathworks).
The dose response curves also were used to calculate Fold Change (FC) using the equation: […]
Compound efficacy relative to the reference compound 3-(6-(1-(2,2-difluorobenzo[d][1,3]dioxol-5-yl)cyclopropane-1-carboxamido)-3-methylpyridin-2-yl)benzoic acid was determined using the following formula: […]

[1] = mean of at least two replicates
[2] = delF508-CFTR-HRP surface expression

T1 sequence (P13569 with tags, fused parts or gaps DEL508-508): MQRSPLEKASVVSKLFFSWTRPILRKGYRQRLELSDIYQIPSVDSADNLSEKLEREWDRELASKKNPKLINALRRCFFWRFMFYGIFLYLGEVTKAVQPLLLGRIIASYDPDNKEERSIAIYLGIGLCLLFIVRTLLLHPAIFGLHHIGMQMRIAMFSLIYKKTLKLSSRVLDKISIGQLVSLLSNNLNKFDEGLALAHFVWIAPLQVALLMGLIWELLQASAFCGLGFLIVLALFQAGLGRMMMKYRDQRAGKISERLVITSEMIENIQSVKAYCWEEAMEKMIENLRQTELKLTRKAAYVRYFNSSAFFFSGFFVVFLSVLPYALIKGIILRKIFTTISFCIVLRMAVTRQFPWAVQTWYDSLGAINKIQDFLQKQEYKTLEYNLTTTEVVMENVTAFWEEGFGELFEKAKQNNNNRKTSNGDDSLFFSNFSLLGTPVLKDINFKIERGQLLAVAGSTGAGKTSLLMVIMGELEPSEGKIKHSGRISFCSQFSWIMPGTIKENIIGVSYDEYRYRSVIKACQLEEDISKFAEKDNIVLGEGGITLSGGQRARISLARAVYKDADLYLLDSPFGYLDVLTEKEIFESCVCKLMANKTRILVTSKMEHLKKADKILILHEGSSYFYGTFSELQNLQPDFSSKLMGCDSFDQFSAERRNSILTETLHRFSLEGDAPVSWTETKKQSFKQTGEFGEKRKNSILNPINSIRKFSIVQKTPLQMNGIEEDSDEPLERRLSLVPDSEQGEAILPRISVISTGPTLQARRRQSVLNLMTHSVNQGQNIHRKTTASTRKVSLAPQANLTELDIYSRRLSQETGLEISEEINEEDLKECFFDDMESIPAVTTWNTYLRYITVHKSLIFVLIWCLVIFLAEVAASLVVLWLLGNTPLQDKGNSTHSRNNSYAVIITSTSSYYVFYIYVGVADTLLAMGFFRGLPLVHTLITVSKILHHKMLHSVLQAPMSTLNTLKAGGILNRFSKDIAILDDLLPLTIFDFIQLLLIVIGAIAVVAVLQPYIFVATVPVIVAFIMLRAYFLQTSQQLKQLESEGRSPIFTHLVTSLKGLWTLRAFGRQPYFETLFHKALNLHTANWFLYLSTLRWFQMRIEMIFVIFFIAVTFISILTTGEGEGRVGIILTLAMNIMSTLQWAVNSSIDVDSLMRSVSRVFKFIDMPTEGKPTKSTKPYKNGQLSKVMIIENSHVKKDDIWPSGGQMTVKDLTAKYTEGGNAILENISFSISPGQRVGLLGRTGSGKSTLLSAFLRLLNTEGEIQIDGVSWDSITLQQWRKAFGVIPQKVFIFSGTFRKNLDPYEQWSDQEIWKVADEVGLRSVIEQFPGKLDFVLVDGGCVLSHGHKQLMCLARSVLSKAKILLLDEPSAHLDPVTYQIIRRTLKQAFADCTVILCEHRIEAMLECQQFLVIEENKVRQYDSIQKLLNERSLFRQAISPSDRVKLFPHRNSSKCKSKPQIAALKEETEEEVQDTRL

Row | Compound | EC50 [1] [nM] | Emax (surface expression Amax) [%] | Emax [2] [%] | EC50 [2] [nM]
1 | Cc1ccccc1-c1nc(NS(=O)(=O)c2cccc(NC3CCC(C(=O)O)C3)n2)ccc1C(F)(F)F (mixture of isomers) [Example 459, 3-((6-(N-(6-(o-tolyl)-5-(trifluoromethyl)pyridin-2-yl)sulfamoyl)pyridin-2-yl)amino)cyclopentanecarboxylic Acid] | 2360 | 332 | – | –
2 | Cc1ccccc1-c1nc(NS(=O)(=O)c2cccc(NC3CCCC(C(=O)O)C3)n2)ccc1C(F)(F)F (mixture of isomers) [Example 460, 3-((6-(N-(6-(o-tolyl)-5-(trifluoromethyl)pyridin-2-yl)sulfamoyl)pyridin-2-yl)amino)cyclohexanecarboxylic acid] | 1810 | 362 | – | –
3 | CO[C@H]1CNCC[C@H]1Nc1cccc(S(=O)(=O)Nc2ccc(C(F)(F)F)c(-c3ccccc3C)n2)n1 (racemic) [Example 115, 6-(((3S,4R)-3-methoxypiperidin-4-yl)amino)-N-(6-(o-tolyl)-5-(trifluoromethyl)pyridin-2-yl)pyridine-2-sulfonamide Hydrochloride] | – | – | 192 | 3810
4 | Cc1ccccc1-c1nc(NS(=O)(=O)c2cccc(OC3COCC3=O)n2)ccc1C(F)(F)F (racemic) [Example 292, 6-((4-oxotetrahydrofuran-3-yl)oxy)-N-(6-(o-tolyl)-5-(trifluoromethyl)pyridin-2-yl)pyridine-2-sulfonamide] | – | – | 225 | 2970
5 | Cc1ccccc1-c1nc(NS(=O)(=O)c2cccc(N[C@@H]3C[C@@]4(C(=O)O)CC[C@@H]3O4)n2)ccc1C(F)(F)F (racemic) [Example 395, rac-(1RS,3RS,4SR)-3-((6-(N-(6-(o-tolyl)-5-(trifluoromethyl)pyridin-2-yl)sulfamoyl)pyridin-2-yl)amino)-7-oxabicyclo[2.2.1]heptane-1-carboxylic Acid] | 3650 | 64.3 | – | –
6 | CC(C)c1ccccc1-c1nc(NS(=O)(=O)c2cccc(N[C@@H]3C[C@@]4(C(=O)O)CC[C@@H]3O4)n2)ccc1C(F)(F)F (racemic) [Example 403, rac-(1RS,3RS,4SR)-3-((6-(N-(6-(2-isopropylphenyl)-5-(trifluoromethyl)pyridin-2-yl)sulfamoyl)pyridin-2-yl)amino)-7-oxabicyclo[2.2.1]heptane-1-carboxylic Acid] | 2360 | 155 | – | –
7 | CCC[C@@H]1CCN(c2cccc(S(=O)(=O)Nc3ccc(C(F)(F)F)c(-c4ccccc4C)n3)n2)[C@H]2C[C@H](C(=O)O)[C@@H]12 (racemic) [Example 404, rac-(1SR,5RS,6RS,7SR)-5-propyl-2-(6-(N-(6-(o-tolyl)-5-(trifluoromethyl)pyridin-2-yl)sulfamoyl)pyridin-2-yl)-2-azabicyclo[4.2.0]octane-7-carboxylic Acid] | 786 | – | – | –
8 | CCC[C@@H]1CCN(c2cccc(S(=O)(=O)Nc3ccc(Cl)c(-c4cccnc4C(C)C)n3)n2)[C@H]2C[C@H](C(=O)O)[C@@H]12 (racemic) [Example 434, rac-(1SR,5RS,6RS,7SR)-2-(6-(N-(3-chloro-2′-isopropyl-[2,3′-bipyridin]-6-yl)sulfamoyl)pyridin-2-yl)-5-propyl-2-azabicyclo[4.2.0]octane-7-carboxylic Acid] | 2230 | 734 | – | –
9 | O=C(O)[C@]12CC[C@H](O1)[C@H](Nc1cccc(S(=O)(=O)Nc3ccc(C(F)(F)F)c(-c4ccccc4C4CC4)n3)n1)C2 (racemic) [Example 438, rac-(1RS,3RS,4SR)-3-((6-(N-(6-(2-cyclopropylphenyl)-5-(trifluoromethyl)pyridin-2-yl)sulfamoyl)pyridin-2-yl)amino)-7-oxabicyclo[2.2.1]heptane-1-carboxylic Acid] | 1980 | 53.4 | – | –
10 | CC(C)c1ccccc1-c1nc(NS(=O)(=O)c2cccc(N3CCC[C@@H]4[C@@H](C(=O)O)C[C@@H]43)n2)ccc1C(F)(F)F (racemic) [Example 442, rac-(1SR,6RS,7SR)-2-(6-(N-(6-(2-isopropylphenyl)-5-(trifluoromethyl)pyridin-2-yl)sulfamoyl)pyridin-2-yl)-2-azabicyclo[4.2.0]octane-7-carboxylic Acid] | 1240 | – | – | –
11 | Cc1ccccc1-c1nc(NS(=O)(=O)c2cccc(N3CCC[C@@H]4[C@@H](C(=O)O)C[C@@H]43)n2)ccc1C(F)(F)F (racemic) [Example 443, rac-(1SR,6RS,7SR)-2-(6-(N-(6-(o-tolyl)-5-(trifluoromethyl)pyridin-2-yl)sulfamoyl)pyridin-2-yl)-2-azabicyclo[4.2.0]octane-7-carboxylic Acid] | 1750 | – | – | –
12 | Cc1ccccc1-c1nc(NS(=O)(=O)c2cccc(N[C@@H]3CCNC[C@@H]3O)n2)ccc1C(F)(F)F (relative stereo) [Example 113, 6-(((3S,4R)-3-hydroxypiperidin-4-yl)amino)-N-(6-(o-tolyl)-5-(trifluoromethyl)pyridin-2-yl)pyridine-2-sulfonamide Hydrochloride] | – | – | 72 | 4220
13 | Cc1ccccc1-c1nc(NS(=O)(=O)c2cccc(N[C@@H]3CCC[C@H](C(=O)O)C3)n2)ccc1C(F)(F)F (relative stereo) [Example 461, (1,3-cis)-3-((6-(N-(6-(o-tolyl)-5-(trifluoromethyl)pyridin-2-yl)sulfamoyl)pyridin-2-yl)amino)cyclohexanecarboxylic Acid] | 1950 | 392 | – | –
14 | Cc1ccccc1-c1nc(NS(=O)(=O)c2cccc(N[C@@H]3CCC[C@@H](C(=O)O)C3)n2)ccc1C(F)(F)F (relative stereo) [Example 463, (1,3-trans)-3-((6-(N-(6-(o-tolyl)-5-(trifluoromethyl)pyridin-2-yl)sulfamoyl)pyridin-2-yl)amino)cyclohexanecarboxylic Acid] | 2950 | 410 | – | –
15 | Cc1cccc(C)c1-c1nc(NS(=O)(=O)c2cccc(N)n2)cc(C(F)(F)F)c1Cl [Example 8, 6-amino-N-(5-chloro-6-(2,6-dimethylphenyl)-4-(trifluoromethyl)pyridin-2-yl)pyridine-2-sulfonamide] | – | – | 608 | 1360
16 | Cc1cccc(C)c1-c1nc(NS(=O)(=O)c2cccc(N)n2)ccc1F [Example 9, 6-amino-N-(6-(2,6-dimethylphenyl)-5-fluoropyridin-2-yl)pyridine-2-sulfonamide] | – | – | 597 | 1520
17 | Cc1ccccc1-c1nc(NS(=O)(=O)c2cccc(N)n2)ccc1Cl [Example 14, 6-Amino-N-(5-chloro-6-(o-tolyl)pyridin-2-yl)pyridine-2-sulfonamide] | – | – | 523 | 1350
18 | Cc1ccccc1-c1nc(NS(=O)(=O)c2cccc(N)n2)ccc1C(F)(F)F [Example 15, 6-amino-N-(6-(o-tolyl)-5-(trifluoromethyl)pyridin-2-yl)pyridine-2-sulfonamide] | – | – | 520 | 2300
19 | Nc1cccc(S(=O)(=O)Nc2ccc(Cl)c(-c3cc(Cl)ccc3C3CC3)n2)n1 [Example 16, 6-amino-N-(5-chloro-6-(5-chloro-2-cyclopropylphenyl)pyridin-2-yl)pyridine-2-sulfonamide] | – | – | 519 | 1010
20 | Nc1cccc(S(=O)(=O)Nc2ccc(Cl)c(-c3ccccc3C3CC3)n2)n1 [Example 19, 6-amino-N-(5-chloro-6-(2-cyclopropylphenyl)pyridin-2-yl)pyridine-2-sulfonamide] | – | – | 501 | 1300
21 | [2H]C([2H])([2H])c1ccccc1-c1nc(NS(=O)(=O)c2cccc(N)n2)ccc1Cl [Example 20, 6-amino-N-(5-chloro-6-(2-(methyl-d3)phenyl)pyridin-2-yl)pyridine-2-sulfonamide] | – | – | 499 | 1760
22 | Nc1cccc(S(=O)(=O)Nc2ccc(Cl)c(-c3cc(F)ccc3C3CC3)n2)n1 [Example 21, 6-amino-N-(5-chloro-6-(2-cyclopropyl-5-fluorophenyl)pyridin-2-yl)pyridine-2-sulfonamide] | – | – | 493 | 1360
